Results published in patent US20240277677A1, “SALT FORM AND CRYSTAL FORM THEREOF OF SULFONYLUREA RING SUBSTITUTED COMPOUND” (priority 2022, published 2024).
Converted amounts (≈) assume the structure as drawn. Where two headings read alike, the source gives them in different places.

How the values were obtained:
[1] = Pharmacokinetics study in rats in vivo, intravenous administration; parameters: species or system SD male rats; conditions: for AUC(0-t) / C0 / clearance / half-life / Vd: Sprague-Dawley (SD), rat, plasma, SD male rats, dissolved in saline; for AUC(0-t): read-out: AUC0-last Area under plasma concentration-time curve; for C0: read-out: C0 Initial concentration; for clearance: read-out: Cl Clearance rate; for half-life: read-out: T1/2 Half-life period (converted); for Vd: read-out: Vdss Apparent volume of distribution
Procedure: The pharmacokinetic characteristics in rodents after intravenous administration of the compound was tested with standard scheme. Specifically, SD male rats at the age of 7-10 weeks were administered intravenously with the candidate compound in the experiment. The compound was dissolved in salt water to prepare a clear solution. The plasma samples are collected and analyzed by LC-MS/MS, and the pharmacokinetic parameters were calculated.

[2] = system: Klebsiella pneumoniae ATCC-BAA 2470 (NDM+); assay: Drug efficacy in thigh muscle infection model in vivo (immunodeficient CD-1 female mice); conditions: for Average CFU of Mouse (bacterial load of thigh muscle tissue): end point 26 h
Procedure: 78 CD-1 female mice were divided into 26 cages, 3 mice per cage. The day of infection is counted as the 0 day.
150 mg/kg immunosuppressant cyclophosphamide was intraperitoneally injected on Day-4, and 100 mg/kg immunosuppressant cyclophosphamide was intraperitoneally injected again on Day-1 to obtain immunodeficient mice.
The strain Klebsiella pneumoniae ATCC-BAA 2470 (NDM+) was recovered on an MHA plate on Day-1. The recovered colonies were picked and dissolved in sterile saline to prepare a bacterial solution with a concentration of 5.95E+07 CFU/mL for use in mouse thigh muscle infection. The infection starting time was counted as 0 h, and 100μL of bacterial solution is injected into the thigh muscle of each mouse at 0 h, that is, the inoculation amount is 5.95E+06 CFU/mouse. 2 h after infection, the drugs were administered according to the experimental scheme. […] The mice in the 1st to 4th cage were administered at a total daily dose of 1600 mg/kg, the mice in the 5th to 8th cage were administered at a total daily dose of 480 mg/kg, the mice in the 9th to 12th cage were administered at a total daily dose of 160 mg/kg, the mice in the 13th to 16th cage were administered at a total daily dose of 48 mg/kg, the mice in the 17th to 20th cage were administered at a total daily dose of 16 mg/kg, the mice in the 21th to 24th cage were administered at a total daily dose of 4.8 mg/kg, and each dosage group was administered separately in four different dosage dividing manners, which were q3 h, q6 h, q12 h and q24 h separately. • (3) 26 h after infection: The endpoint of the experiment was at 26 h after infection, the thigh muscle tissue of the mice of the 1st to 26th cage was taken and placed in 10 mL sterile saline, the tissue was homogenized by a homogenizer, and the homogenate was dotted on a plate with gradient dilution, two duplications for each mouse. The bacterial load of the thigh muscle tissue of the mice was counted, and for the experimental results see Table 15.

[3] = Stability test of the crystal form A in different solvents (suspension 2 days, crystal form test); assay type: physicochemical; conditions: for Result (crystal form): 20~30° C., 2 days
[4] = Exploration of other crystal forms by changing crystallization conditions; assay type: physicochemical
Source text: Purpose: Explore obtaining other crystal forms by changing crystallization conditions.

[5] = system: Escherichia coli ATCC BAA-2523(OXA-48); assay: Antibacterial activity MIC, micro-liquid dilution method (CLSI); assay type: cell-based; conditions: ATCCBAA2523, E. coli ATCC BAA-2523 Class D (OXA-48)
Source text: Three strains of Klebsiella pneumonia, ATCC BAA-205 (TEM-1/SHV-1/SHV-12), ATCC BAA-1705 (KPC-2), ATCC BAA-2470 (NDM-1), Enterobacter cloacae ATCC BAA-1143 (AmpC), two strains of Escherichia coli ATCC BAA-2523(OXA-48), ATCC 25922 were used to determine the minimum inhibitory concentration (MIC) of each of the compounds by a micro-liquid dilution method according to the Institute of Clinical and Laboratory Standard (CLSI) requirements. A 2-fold serial dilution of the compound (final concentration ranging from 0.125 μg/ml to 128 µg/ml) was added to a round-bottom 96-well plate (Catalog #3788, Corning), fresh monoclonal bacteria were selected from an overnight cultured Mueller Hinton II Agar medium plate (MHA, Cat. No. 211438, BD BBL™) and suspended in sterile saline, the concentration was adjusted to 1×10^8 CFU/mL, and then the solution was diluted by using a cation-adjusted Hinton Mueller culture medium Cation-Adjusted Mueller Hinton II Broth (MHB, Catalog #212332, BD BBL™) to a concentration of 5×10^5 CFU/ml, and 100 μl of the solution was added to a round bottom 96-well plate containing the drugs. The plate was placed upside down at 37° C. and the MIC value was read after 20-24 h of incubation, and the lowest drug concentration that inhibited the growth of bacteria was set as MIC. For the results see Table 1. Colony-Forming Units (CFU) refers to the total number of bacterial colonies per unit volume.

[6] = intravenous injection at 100 mg/kg
[7] = intravenous injection at 300 mg/kg

Compound: NC[C@@H]1CN(C[C@@H]2[C@H](NC(=O)/C(=N\OC3(C(=O)O)CC3)c3csc(N)n3)C(=O)N2S(=O)O)S(=O)(=O)N1 (stereo in doubt)
- AUC(0-t) [1, 6]: 166 µM·h
- C0 [1, 6]: 581 µM
- clearance [1, 6]: 17.2 mL/min/kg
- half-life [1, 6]: 18.7 min
- Vd [1, 6]: 0.378 L/kg
- AUC(0-t) [1, 7]: 467 µM·h
- C0 [1, 7]: 1380 µM
- clearance [1, 7]: 18.4 mL/min/kg
- half-life [1, 7]: 21.7 min
- Vd [1, 7]: 0.463 L/kg
- Exposure versus dose (conclusion) ([1]; rats, intravenous): increases linearly
- Average CFU of Mouse (bacterial load of thigh muscle tissue) ([2]; group 1: total daily dose 1600 mg/kg, single dose 60 mg/kg, q3h s.c.): 2.18E+06 CFU/Mouse
- Average CFU of Mouse (bacterial load of thigh muscle tissue) ([2]; group 2: total daily dose 1600 mg/kg, single dose 400 mg/kg, q6h s.c.): 2.45E+06 CFU/Mouse
- Average CFU of Mouse (bacterial load of thigh muscle tissue) ([2]; group 3: total daily dose 1600 mg/kg, single dose 800 mg/kg, q12h s.c.): 3.80E+08 CFU/Mouse
- Average CFU of Mouse (bacterial load of thigh muscle tissue) ([2]; group 4: total daily dose 1600 mg/kg, single dose 1600 mg/kg, q24h s.c.): 9.02E+09 CFU/Mouse
- Average CFU of Mouse (bacterial load of thigh muscle tissue) ([2]; group 5: total daily dose 480 mg/kg, single dose 60 mg/kg, q3h s.c.): 2.20E+06 CFU/Mouse
- Average CFU of Mouse (bacterial load of thigh muscle tissue) ([2]; group 6: total daily dose 480 mg/kg, single dose 120 mg/kg, q6h s.c.): 2.18E+08 CFU/Mouse
- Average CFU of Mouse (bacterial load of thigh muscle tissue) ([2]; group 7: total daily dose 480 mg/kg, single dose 240 mg/kg, q12h s.c.): 2.88E+09 CFU/Mouse
- Average CFU of Mouse (bacterial load of thigh muscle tissue) ([2]; group 8: total daily dose 480 mg/kg, single dose 480 mg/kg, q24h s.c.): 8.73E+09 CFU/Mouse
- Average CFU of Mouse (bacterial load of thigh muscle tissue) ([2]; group 9: total daily dose 160 mg/kg, single dose 20 mg/kg, q3h s.c.): 2.10E+06 CFU/Mouse
- Average CFU of Mouse (bacterial load of thigh muscle tissue) ([2]; group 10: total daily dose 160 mg/kg, single dose 40 mg/kg, q6h s.c.): 4.67E+08 CFU/Mouse
- Average CFU of Mouse (bacterial load of thigh muscle tissue) ([2]; group 11: total daily dose 160 mg/kg, single dose 80 mg/kg, q12h s.c.): 7.88E+09 CFU/Mouse
- Average CFU of Mouse (bacterial load of thigh muscle tissue) ([2]; group 12: total daily dose 160 mg/kg, single dose 160 mg/kg, q24h s.c.): 1.22E+10 CFU/Mouse
- Average CFU of Mouse (bacterial load of thigh muscle tissue) ([2]; group 13: total daily dose 48 mg/kg, single dose 6 mg/kg, q3h s.c.): 4.07E+06 CFU/Mouse
- Average CFU of Mouse (bacterial load of thigh muscle tissue) ([2]; group 14: total daily dose 48 mg/kg, single dose 12 mg/kg, q6h s.c.): 1.57E+09 CFU/Mouse
- Average CFU of Mouse (bacterial load of thigh muscle tissue) ([2]; group 15: total daily dose 48 mg/kg, single dose 24 mg/kg, q12h s.c.): 8.70E+09 CFU/Mouse
- Average CFU of Mouse (bacterial load of thigh muscle tissue) ([2]; group 16: total daily dose 48 mg/kg, single dose 48 mg/kg, q24h s.c.): 1.32E+10 CFU/Mouse
- Average CFU of Mouse (bacterial load of thigh muscle tissue) ([2]; group 17: total daily dose 16 mg/kg, single dose 2 mg/kg, q3h s.c.): 7.77E+07 CFU/Mouse
- Average CFU of Mouse (bacterial load of thigh muscle tissue) ([2]; group 18: total daily dose 16 mg/kg, single dose 4 mg/kg, q6h s.c.): 2.92E+09 CFU/Mouse
- Average CFU of Mouse (bacterial load of thigh muscle tissue) ([2]; group 19: total daily dose 16 mg/kg, single dose 8 mg/kg, q12h s.c.): 6.93E+09 CFU/Mouse
- Average CFU of Mouse (bacterial load of thigh muscle tissue) ([2]; group 20: total daily dose 16 mg/kg, single dose 16 mg/kg, q24h s.c.): 1.44E+10 CFU/Mouse
- Average CFU of Mouse (bacterial load of thigh muscle tissue) ([2]; group 21: total daily dose 4.8 mg/kg, single dose 0.6 mg/kg, q3h s.c.): 7.22E+08 CFU/Mouse
- Average CFU of Mouse (bacterial load of thigh muscle tissue) ([2]; group 22: total daily dose 4.8 mg/kg, single dose 1.2 mg/kg, q6h s.c.): 4.55E+09 CFU/Mouse
- Average CFU of Mouse (bacterial load of thigh muscle tissue) ([2]; group 23: total daily dose 4.8 mg/kg, single dose 2.4 mg/kg, q12h s.c.): 7.60E+09 CFU/Mouse
- Average CFU of Mouse (bacterial load of thigh muscle tissue) ([2]; group 24: total daily dose 4.8 mg/kg, single dose 4.8 mg/kg, q24h s.c.): 1.27E+10 CFU/Mouse
- Antibacterial effect in vivo (conclusion) ([2]; mouse thigh muscle infection, subcutaneous, 26 h after infection): significant antibacterial effect in vivo
- Effect of shortening the administration interval (conclusion) ([2]; same daily dose, q3 h, q6 h, q12 h, q24 h): significantly improve the efficacy in vivo
- Dose-effect relationship (conclusion) ([2]; total daily dose 4.8 to 1600 mg/kg): significant
- Appearance (2 days) ([3]; Acetonitrile): Suspension
- Appearance (2 days) ([3]; Acetonitrile-water(20:1)): Suspension
- Appearance (2 days) ([3]; Ethanol): Suspension
- Appearance (2 days) ([3]; Ethanol-water(20:1)): Suspension
- Appearance (2 days) ([3]; Ethyl acetate): Suspension
- Appearance (2 days) ([3]; Isopropanol): Suspension
- Appearance (2 days) ([3]; Isopropanol-water(20:1)): Suspension
- Appearance (2 days) ([3]; Tetrahydrofuran): Suspension
- Result (crystal form) ([3]; suspended in Acetonitrile): Crystal form A
- Result (crystal form) ([3]; suspended in Acetonitrile-water(20:1)): Crystal form A
- Result (crystal form) ([3]; suspended in Ethanol): Crystal form A
- Result (crystal form) ([3]; suspended in Ethanol-water(20:1)): Crystal form A
- Result (crystal form) ([3]; suspended in Ethyl acetate): Crystal form A
- Result (crystal form) ([3]; suspended in Isopropanol): Crystal form A
- Result (crystal form) ([3]; suspended in Isopropanol-water(20:1)): Crystal form A
- Result (crystal form) ([3]; suspended in Tetrahydrofuran): Crystal form A
- Stability in solvents (conclusion) ([3]; variety of solvents): stable
- Result of crystallization (exploration of other crystal forms) ([4]; EtOH:H2O = 10:1, first dissolved and then cooled down): No crystal was obtained
- Result of crystallization (exploration of other crystal forms) ([4]; EtOH:H2O = 20:1, first dissolved and then cooled down): No crystal was obtained
- Result of crystallization (exploration of other crystal forms) ([4]; IPA:H2O = 10:1, first dissolved and then cooled down): No crystal was obtained
- Result of crystallization (exploration of other crystal forms) ([4]; IPA:H2O = 20:1, first dissolved and then cooled down): No crystal was obtained
- Result of crystallization (exploration of other crystal forms) ([4]; THF:H2O = 10:1, first dissolved at 40° C., cooled to 0~5° C.): No crystal was obtained
- Result of crystallization (exploration of other crystal forms) ([4]; acetone:H2O = 20:1, first dissolved and then cooled down): No crystal was obtained
- Other crystal forms obtained (conclusion) ([4]; dissolved in different aqueous systems and then crystallized): no other crystal forms were obtained
- MIC [5]: 0.125 µg/mL (≈ 0.221 µM)
